{
  "source": "patent US11167006B2",
  "about": "(Shanghai Tianci Life Science Development Co., Ltd., priority 2016, dated 2021)",
  "key": {"[1]": {"test_system": "acute pain caused by photothermal therapy in male mice of Kunming strain", "test": "Mouse photothermal tail flick analgesia experiment", "assay_type": "in vivo", "protocol": "After the drug was injected into the lateral ventricle, intrathecal, subcutaneous, and intraperitoneal, the modulating activity on pain was measured by the photothermal tail flick test in mouse.\nIn the lateral ventricle administration, the lateral ventricle tube-buried surgery of the mouse should be performed in advance to ensure the accuracy of the drug injection site. A brain stereotaxic instrument was used in the lateral ventricle tube-buried surgery of the mouse. Male mice of Kunming strain, weighing 21±2 g; brain stereotaxic instrument is Jiangwan I. After the mice were anesthetized with sodium pentobarbital (i.p., 80 mg/kg mouse body weight), the hair in the head surgery area of the mouse was cut off and the mouse was placed on the brain stereotactic instrument and fixed. The surgery area was disinfected with iodophor, the scalp was opened along the sagittal suture to reveal the skull and the position of the anterior fontanelle can be found. 3 mm backward and 1 mm left/right from the anterior fontanelle, the upper position of the lateral ventricle can be found. A self-made stainless steel tube (a section of 24-gauge, which is connected to a small section of PE-10 tube) is inserted 3 mm downward according to the above position, which is the lateral ventricle. A section of stainless steel string (28-gauge) is inserted into the above-mentioned steel tube to prevent cerebrospinal fluid spillage and foreign matter infection and block the steel pipe. The steel tube is fixed with medical dental powder and glue, and after solidification, the wound is sutured. After the surgery, the mice were recovered tier 4 days, and the follow-up experiment was started on the 5th day. Surgical instruments, stainless steel tubes, etc. involved in the experiment need to be disinfected before the surgery. The mouse lateral ventricle was injected with 4 μl of the drug each time, and then the steel tube was rinsed with 1 μl of physiological saline.\nSpinal cord level administration is performed by intrathecal injection in conscious mice, and the specific procedure is described in the method reported by Hylden and Wilcox (Eur. J. Pharmacol. 1980, 67: 313). A 25 μL microinjector was inserted directly into the subarachnoid space between L5 and L6.\nThe intraperitoneal administration was directly injected using a 1 mL syringe at an injection volume of 10 μl/g body weight. At the time of injection, the mouse was held by left hand with their abdomen facing up and the head was at low position while the tail was at high position. The side of the midline of the abdomen was taken, the needle hole of the syringe was upward, the needle tip penetrates into the skin in a direction less than 20 degrees, the needle tip was slightly pushed in the direction of the mouse head and sticking abdominal wall, and then punctures into the abdominal cavity in the direction of 45 degrees, and was withdrawn to confirm that it has not been pierced into the blood vessel or the intestine, afterwards the drug solution is slowly pushed out.\nSubcutaneous injection was also administered directly using a 1 mL syringe in an injection volume of 10 μl/g body weight. At the time of injection, the neck and tail of the mouse were fixed in the left hand, and the head and body were inclined downward at 45 degrees. The needle hole of the syringe is upward, the needle tip is slowly pierced into the skin on the right side of the back center line at an angle of less than 20 degrees, and the needle tip is lightly picked up to confirm that there is no piercing, afterwards the drug solution is slowly pushed out.\nMale mice of Kunming strain were used to detect the effects of drugs on pain perception using a photothermal tail flick instrument. The ambient temperature is controlled at 22±1° C., and the experimental animals are free to eat and drink. The basic tail flick incubation period (3-5 seconds) was determined prior to administration, and mice that were too sensitive or dull were discarded. […]"}, "mice": {"test_system": "mice", "test": "Conditional position preference test (CPP)", "assay_type": "in vivo, mouse", "conditions": "subcutaneous 10 mg/kg", "protocol": "The conditional position preference experimental device is a closed device (45×20×20 cm) assembled from transparent plexiglass plates. Two 20×20×20 cm conditional preference boxes are located at both ends of the device, with a small compartment 5×20×20 cm having a passage (5×5×5 cm) connected in the middle. On the first day of the experiment, the passage was kept open, the mice was placed into the device for 15 min, and the mice that had been explored for more than 9 min in any of the preference boxes were excluded. […] On day 5, the passage was kept opened again to ensure that the mice were free to enter into the two preference boxes, and the time that the mice stayed in the drug matching preference box within 15 minutes of the total time was recorded.\nThe experimental relevant data were expressed as mean±standard error (Means±S.E.M.), and the conditional position preference score represents the time spent on the drug matching preference box on day 5 of each mouse minus the time on the first day in this preference box. Differences between groups treated with different drugs in CPP trials were analyzed by one-way ANOVA (Tukey HSD test in one-way ANOVA) for data statistics and analysis."}, "[2]": {"test_system": "CCI-induced neuralgia in mouse", "test": "Analgesic tolerance and cross-tolerance in CCI-induced neuralgia", "assay_type": "in vivo", "protocol": "CCI-induced neuralgia in mouse was detected using a PL-200 thermal tingling instrument and an electronic Von Frey tenderness instrument. The thermal pain threshold of one group of normal mice and the mechanical pain threshold of another group of normal mice were first determined. The mice were then anesthetized with sodium pentobarbital 80 mg/kg mouse body weight) and the mice were fixed in the prone position. The right sciatic nerve was exposed and 3 mild ligation rings were made around the sciatic nerve using a 4-0 chromic catgut, 1 mm intervals. The ligation intensity is preferably a slight tremor in the right hind leg. On the 10th day after surgery, the thermal pain sensitivity value and mechanical pain sensitivity value of the right hind paw of the two groups of mice were determined. Compound 9 or morphine was then administered subcutaneously for seven consecutive days, and compound 9 was given to mice in the morphine group on day 8. The thermal tingling and mechanical pain thresholds at different time points after administration were recorded.\nThe experimental data were expressed as mean±standard error (Means±S.E.M.). Data for differences between groups treated with the same drug were analyzed by one-way ANOVA (Tukey HSD test of one-way ANOVA) for statistics and analysis, *P<0.05. **P<0.01, ***P<0.001 indicates a significant difference between the pain threshold of the drug-treated group and the pain threshold after the First day of administration."}, "[3]": {"test_system": "movement coordination of mice", "test": "Movement coordination, RotaRod", "assay_type": "in vivo, mouse", "conditions": "subcutaneous 10 mg/kg", "protocol": "The movement coordination of the mice was detected by a ZB-200 RotaRod System. The mice were first trained for two days at a rotational speed of 16 r/min and continuously trained three times a day. The maximum movement time for each training was set to 300 s, and mice with movement time less than 180 s were excluded after the training. On day 3 of the experiment, mice were tested for movement coordination at 10, 20, 30 and 40 min after subcutaneous administration of compound 9.\nThe experimental data were expressed as mean±standard error (Means±S.E.M.), and the differences between drug treatment groups were analyzed by one-way ANOVA (Dunnett test in one-way ANOVA) for data statistics and analysis."}, "[4]": {"conditions": "subcutaneous, seven consecutive days"}},
  "note": "Entries after “also recorded” stand apart in the source; their conditions may differ. Square brackets hold non-standard residues; d marks the D form. Peptide text beside a SMILES is read from it. NMeF = CN[C@@H](Cc1ccccc1)C(=O)O",
  "data": [
    {"smiles": "C[C@@H](NC(=O)[C@@H](N)Cc1ccc(O)cc1)C(=O)NCC(=O)N(C)[C@@H](Cc1ccccc1)C(=O)NCC(=O)N1CCC[C@H]1C(=O)N[C@@H](CCC(N)=O)C(=O)N[C@@H](CCCNC(=N)N)C(=O)N[C@@H](Cc1ccccc1)C(N)=O", "note": "[Compound 9, Tyr-D-Ala-Gly-NMe-Phe-Gly-Pro-Gln-Arg-Phe-NH2] (H-Y[dA]G[NMeF]GPQRF-NH2)", "values": [
      {"measurement": "analgesia ED50 value", "setting": "[1]; abdominal (intraperitoneal)", "value": 26.58, "unit": "mg/kg"},
      {"measurement": "analgesic potency relative to BN-9", "setting": "[1]; intrathecal", "value": 218, "unit": "times"},
      {"measurement": "analgesic ED50 value", "setting": "[1]; intrathecal administration", "value": 1.33, "unit": "pmol"},
      {"measurement": "maximum analgesic MPE value", "setting": "[1]; intrathecal, 5 pmol", "value": 94.7, "unit": "%"},
      {"measurement": "analgesic ED50 value", "setting": "[1]; lateral ventricle administration", "value": 16.3, "unit": "pmol"},
      {"measurement": "ED50 value (nmol) (95% confidence interval), analgesic activity", "setting": "[1]; lateral ventricle injection", "value": "0.0163 (0.0145 to 0.0182) nmol"},
      {"measurement": "analgesic potency relative to BN-9", "setting": "[1]; lateral ventricle, from ED50 values", "value": 23.9, "unit": "times"},
      {"measurement": "analgesia ED50 value", "setting": "[1]; subcutaneous", "value": 0.2279, "unit": "mg/kg"},
      {"measurement": "conditional positional preference", "setting": "mice", "value": "produced significant conditional positional preference; also recorded: lower degree of preference than morphine"},
      {"measurement": "cross-tolerance between compound 9 and morphine", "setting": "[2]; morphine-tolerant mice given compound 9 s.c. on day 8", "value": "no cross-tolerance"},
      {"measurement": "analgesic tolerance on continuous injection, mechanical pain sensitivity", "setting": "[2]; [4]", "value": "not significantly different from that obtained in the first day"},
      {"measurement": "analgesic tolerance on continuous injection, thermal sensitivity pain", "setting": "[2]; [4]", "value": "not significantly different from that obtained in the first day"},
      {"measurement": "effect on movement coordination", "setting": "[3]", "value": "did not significantly affect movement coordination"}
    ]}
  ]
}
